# Tests used:
# [1] = biological target: T1, cell surface TrkA (4-3.6 cells, p75+ TrkA+) (Homo sapiens, UniProt P04629); assay: FACScan binding of D3-biotin to 4-3.6 cells
# T1 construct: expressed in transfected cells
# Excerpt: (§1) The 4-3.6 cells are B104 cells stably transfected with human trkA cDNA, and express equal levels of p75 and TrkA (TrkA+ p75+). For screening agents that activate or antagonize TrkC receptors, NIH3T3 fibroblasts were stably transfected with human TrkC cDNA. These cells respond to the ligand NT-3. For screening agents that activate or antagonize TrkA receptors, NIH3T3 fibroblasts were stably transfected with human TrkA cDNA. These cells respond to the ligand NGF.
# FACScan binding assays: 4-3.6 cells (2×10^5) in FACScan binding buffer (PBS, 0.5% BSA, and 0.1% NaN3) were immunostained as described (Saragovi et al., 1998). Saturating anti-TrkA mAb 5C3, or anti-p75 mAb MC192, or control non-binding IgGs were added to cells for 1 hour at 4° C., in the presence or absence of D3 as competitor. Excess primary antibody was washed off, and cells were immunostained with fluorescinated goat-anti-mouse IgG secondary antibody. Cells were acquired on a FACScan and mean channel fluorescence of bell-shaped histograms were analyzed using the LYSIS II program.
# FACScan analysis featuring the secondary fluorescent agent avidin-FITC was used to detect binding of D3-biotin to the cell surface (Table 1). The 4-3.6 cells (p75+TrkA+) had fluorescence approximately 4 times greater for D3-biotin than for a background control peptide-biotin.
# [2] = system: 4-3.6 cells (p75+TrkA+); assay: Cell survival (MTT), 4-3.6 cells; assay type: cell-based, rat; details: 72 hours;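 for % Protection: 100% equals survival with optimal NGF at 1 nM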
# Excerpt: as §1
# (§2) Cell lines: 5,000 cells/well in protein-free media (PFHM-II, GIBCO, Toronto) containing 0.2% bovine serum albumin (BSA) (Crystalline fraction V, Sigma, St. Louis, Mo.) were seeded in 96 well plates (Falcon, Mississauga, Ontario). The cultures were untreated, or treated with the indicated test or control ligands. Cell viability was quantitated using the MTT assay after 56-72 hours of culture. […] The OD of untreated cells were subtracted. The higher optical density of untreated primary cultures is likely due to cellular heterogeneity and to endogenous production of limiting amounts of growth factors.
# [3] = biological target: T2, NIH3T3 fibroblasts expressing TrkA (Homo sapiens, UniProt P04629); assay: Cell survival (MTT), NIH-TrkA; assay type: cell-based; details: for NIH-TrkA % Protection: 72 hours;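 for NIH-TrkA % Protection: 100% equals survival with optimal NGF at 1 nM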
# T2 construct: expressed in transfected cells; host or cells: NIH3T3 fibroblasts
# Excerpt: as §1, with “These cells respond to the ligand NT-3.” left out, “cDNA.” for “cDNA. These cells respond to the ligand NGF.”
# as §2, with “subtracted.” for “subtracted. The higher optical density of untreated primary cultures is likely due to cellular heterogeneity and to endogenous production of limiting amounts of growth factors.”
# T2 sequence (P04629 33-796): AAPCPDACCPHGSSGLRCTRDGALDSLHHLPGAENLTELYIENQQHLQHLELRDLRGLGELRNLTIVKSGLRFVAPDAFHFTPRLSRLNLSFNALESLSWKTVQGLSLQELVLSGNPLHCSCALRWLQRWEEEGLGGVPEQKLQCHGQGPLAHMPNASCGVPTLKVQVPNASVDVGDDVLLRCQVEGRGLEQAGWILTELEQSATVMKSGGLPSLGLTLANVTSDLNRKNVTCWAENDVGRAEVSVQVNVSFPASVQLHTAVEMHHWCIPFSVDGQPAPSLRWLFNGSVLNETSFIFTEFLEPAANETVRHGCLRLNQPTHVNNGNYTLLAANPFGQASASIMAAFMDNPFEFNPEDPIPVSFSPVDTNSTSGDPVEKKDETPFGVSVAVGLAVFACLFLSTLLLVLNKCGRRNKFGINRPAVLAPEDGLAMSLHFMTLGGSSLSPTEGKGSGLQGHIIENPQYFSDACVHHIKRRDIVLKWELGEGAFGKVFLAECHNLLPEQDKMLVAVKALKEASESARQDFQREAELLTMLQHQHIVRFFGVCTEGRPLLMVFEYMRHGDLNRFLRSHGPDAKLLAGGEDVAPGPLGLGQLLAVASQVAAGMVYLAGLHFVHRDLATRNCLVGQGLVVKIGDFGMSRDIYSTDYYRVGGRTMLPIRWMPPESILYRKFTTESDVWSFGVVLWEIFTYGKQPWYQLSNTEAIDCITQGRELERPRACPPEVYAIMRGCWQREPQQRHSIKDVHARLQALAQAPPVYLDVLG
# T1 sequence (P04629 33-796): as above
smiles,measurement,setting,value
"NCCCC[C@@H]1NC(=O)[C@H](CCC(=O)O)NC(=O)c2cc([N+](=O)[O-])ccc2OCCC(C(=O)NCC(=O)O)NC1=O (stereo partly drawn) [D3, EKHse-G-OH]",competition of D3-biotin binding,[1]; 10-fold molar excess of D3,abolished binding of D3-biotin
same,MCF (mean channel fluorescence),[1]; D3-biotin 20 μM + D3 200 μM as competitor,17 ± 7
same,% Protection,[2]; compound 10 μM + 10 pM NGF,55 ± 3%
same,Optical Density,[2]; compound 10 μM + 10 pM NGF,255 ± 14
same,% Protection,[2]; compound 10 μM alone,8 ± 2%
same,Optical Density,[2]; compound 10 μM alone,95 ± 9
same,enhancement of NGF protection,[3]; NIH3T3 cells stably transfected with TrkA cDNA,enhanced NGF protection
same,NIH-TrkA % Protection,[3]; agent 10 μM + 10 pM NGF,51 ± 5%
same,NIH-TrkA % Protection,[3]; agent 10 μM alone,8 ± 4%

# — US6881719B2, “β-turn peptidomimetic cyclic compounds” (McGill University, priority 2000, dated 2005)
